Assay results: US20240270762A1, “PENICILLIN-BINDING PROTEIN INHIBITORS” (priority 2021, published 2024)

Legend:
K. pneumoniae UMM = test: microbe, parasite or virus in culture; type: cell-based; settings: Klebsiella pneumoniae, read-out: MIC K. pneumoniae UMM
N. gonorrhoeae WHO G = test: Liquid broth MIC in Fastidious broth; settings: Neisseria gonorrhoeae, read-out: Minimum Inhibitory Concentration (MIC), N. gonorrhoeae WHO G
P. aeruginosa ATCC 35151 = test: microbe, parasite or virus in culture; type: cell-based; settings: Pseudomonas aeruginosa, ATCC35151, read-out: MIC P. aeruginosa ATCC 35151
E. coli AG100 = test: microbe, parasite or virus in culture; type: cell-based; settings: Escherichia coli, AG100, read-out: MIC E. coli AG100
N. gonorrhoeae FA1090 = test: Liquid broth MIC in Fastidious broth; settings: Neisseria gonorrhoeae, FA1090, read-out: Minimum Inhibitory Concentration (MIC), N. gonorrhoeae FA 1090
E. coli 901C = test: microbe, parasite or virus in culture; type: cell-based; settings: Escherichia coli, read-out: MIC E. coli 901C
N. gonorrhoeae WHO K = test: Liquid broth MIC in Fastidious broth; settings: Neisseria gonorrhoeae, read-out: Minimum Inhibitory Concentration (MIC), N. gonorrhoeae WHO K
N. gonorrhoeae MS11 = test: Liquid broth MIC in Fastidious broth; settings: Neisseria gonorrhoeae, MS11, read-out: Minimum Inhibitory Concentration (MIC), N. gonorrhoeae MS11
K. pneumoniae SI-117 = test: microbe, parasite or virus in culture; type: cell-based; settings: Klebsiella pneumoniae, SI117, read-out: MIC K. pneumoniae SI-117
E. coli D22 = test: microbe, parasite or virus in culture; type: cell-based; settings: Escherichia coli, D22, read-out: MIC E. coli D22
N. gonorrhoeae WHO L = test: Liquid broth MIC in Fastidious broth; settings: Neisseria gonorrhoeae, read-out: Minimum Inhibitory Concentration (MIC), N. gonorrhoeae WHO L
Protocol: Liquid broth-based assays were used for antibacterial testing of PBP inhibitors in Neisseria gonorrhoeae. Briefly, cryo-preserved bacterial cultures of clinical strains were streaked for isolation on Chocolate Agar (72 g/L (2×) GC Agar Base (BD #228950) and 2% (2×) Hemoglobin was autoclaved at 121° C. for 20 minutes to sterilize. Once cooled to ˜50° C. the 2×GC Agar Base and 2× Hemoglobin solutions are combined and 1% IsoVitaleX Enrichment (BD #211876) was added to the solution). Strains were incubated at 36° C. and 5% CO2 to allow growth of colonies, 24 hours before inoculum preparation. 2-fold serial dilutions of test compounds were conducted in a 96 well plate with a final volume of 75 μL per well at 2-fold the final desired concentration in Fastidious broth (Remel #R07664). For preparation of assay inoculum, a direct suspension was prepared by aseptically swabbing 10-15 colonies from agar plates into culture tubes containing 2 mL of fresh sterile saline. After the dilution plates were set up, direct suspensions were then diluted in a cuvette containing sterile saline and the optical density was measured at 600 nm. Inocula were diluted such that 75 μL of this culture in Fastidious broth results in a starting bacterial concentration of 5×10^5 CFU/mL when added to the dilution plates. The plates were incubated for ˜24 hours at 36° C. and 5% CO2.

N. gonorrhoeae WHO Z = test: Liquid broth MIC in Fastidious broth; settings: Neisseria gonorrhoeae, read-out: Minimum Inhibitory Concentration (MIC), N. gonorrhoeae WHO Z
P. aeruginosa ATCC 27853 = test: microbe, parasite or virus in culture; type: cell-based; settings: Pseudomonas aeruginosa, ATCC27853, read-out: MIC P. aeruginosa ATCC 27853

Measured: MIC

O=C(O)c1cccc2c1OB(O)[C@@H](NC(=O)C(NC(=O)N1CCCNC1=O)c1ccc(P(=O)(O)O)cc1)C2 (stereo partly drawn) [Example 56, (3R)-2-hydroxy-3-(2-(2-oxohexahydropyrimidine-1-carboxamido)-2-(4-phosphonophenyl)acetamido)-3,4-dihydro-2H-benzo[e][1,2]oxaborinine-8-carboxylic acid]
< 1 mg/L: P. aeruginosa ATCC 35151 | N. gonorrhoeae FA1090
8 to 16 mg/L: E. coli D22
16 to 32 mg/L: N. gonorrhoeae WHO K | N. gonorrhoeae WHO L
2 to 4 mg/L: E. coli 901C
4 to 8 mg/L: N. gonorrhoeae WHO Z
1 to 2 mg/L: N. gonorrhoeae WHO G | N. gonorrhoeae MS11
> 128 mg/L: all other assays above

NS(=O)(=O)NC(C(=O)N[C@H]1Cc2cccc(C(=O)O)c2OB1O)c1ccc(P(=O)(O)O)cc1 (stereo partly drawn) [Example 58, (3R)-2-hydroxy-3-(2-(4-phosphonophenyl)-2-(sulfamoylamino)acetamido)-3,4-dihydro-2H-benzo[e][1,2]oxaborinine-8-carboxylic acid]
16 to 32 mg/L: N. gonorrhoeae WHO G | N. gonorrhoeae FA1090 | N. gonorrhoeae WHO K | N. gonorrhoeae MS11 | N. gonorrhoeae WHO L | N. gonorrhoeae WHO Z
> 128 mg/L: all other assays above

CS(=O)(=O)NC(C(=O)N[C@H]1Cc2cccc(C(=O)O)c2OB1O)c1ccc(P(=O)(O)O)cc1 (stereo partly drawn) [Example 59, (3R)-2-hydroxy-3-(2-(methylsulfonamido)-2-(4-phosphonophenyl)acetamido)-3,4-dihydro-2H-benzo[e][1,2]oxaborinine-8-carboxylic acid]
32 to 64 mg/L: P. aeruginosa ATCC 35151 | E. coli 901C
> 128 mg/L: K. pneumoniae UMM | E. coli AG100 | K. pneumoniae SI-117 | E. coli D22 | P. aeruginosa ATCC 27853
16 to 32 mg/L: all other assays above

CC(C)S(=O)(=O)NC(C(=O)N[C@H]1Cc2cccc(C(=O)O)c2OB1O)c1ccc(P(=O)(O)O)cc1 (stereo partly drawn) [Example 60, (3R)-2-hydroxy-3-(2-((1-methylethyl)sulfonamido)-2-(4-phosphonophenyl)acetamido)-3,4-dihydro-2H-benzo[e][1,2]oxaborinine-8-carboxylic acid]
32 to 64 mg/L: P. aeruginosa ATCC 35151 | E. coli 901C
4 to 8 mg/L: N. gonorrhoeae FA1090
> 128 mg/L: K. pneumoniae UMM | E. coli AG100 | K. pneumoniae SI-117 | E. coli D22 | P. aeruginosa ATCC 27853
16 to 32 mg/L: all other assays above

O=C(O)c1cccc2c1OB(O)[C@@H](NC(=O)C(NS(=O)(=O)C1CC1)c1ccc(P(=O)(O)O)cc1)C2 (stereo partly drawn) [Example 61, (3R)-3-(2-(cyclopropanesulfonamido)-2-(4-phosphonophenyl)acetamido)-2-hydroxy-3,4-dihydro-2H-benzo[e][1,2]oxaborinine-8-carboxylic acid]
32 to 64 mg/L: P. aeruginosa ATCC 35151 | E. coli 901C
> 128 mg/L: K. pneumoniae UMM | E. coli AG100 | K. pneumoniae SI-117 | E. coli D22 | P. aeruginosa ATCC 27853
16 to 32 mg/L: all other assays above

O=C1CC[C@@H](C(=O)NC(C(=O)N[C@H]2Cc3cccc(C(=O)O)c3OB2O)c2ccc(P(=O)(O)O)cc2)N1 (stereo partly drawn) [Example 64, (3R)-2-hydroxy-3-(2-((S)-5-oxopyrrolidine-2-carboxamido)-2-(4-phosphonophenyl)acetamido)-3,4-dihydro-2H-benzo[e][1,2]oxaborinine-8-carboxylic acid]
16 to 32 mg/L: N. gonorrhoeae WHO K | N. gonorrhoeae WHO L
8 to 16 mg/L: P. aeruginosa ATCC 35151 | E. coli 901C
4 to 8 mg/L: N. gonorrhoeae WHO G | N. gonorrhoeae FA1090 | N. gonorrhoeae MS11 | N. gonorrhoeae WHO Z
32 to 64 mg/L: E. coli D22
> 128 mg/L: all other assays above

CC(=O)N1CCC[C@H]1C(=O)NC(C(=O)N[C@H]1Cc2cccc(C(=O)O)c2OB1O)c1ccc(P(=O)(O)O)cc1 (stereo partly drawn) [Example 65, (3R)-3-(2-((S)-1-acetylpyrrolidine-2-carboxamido)-2-(4-phosphonophenyl)acetamido)-2-hydroxy-3,4-dihydro-2H-benzo[e][1,2]oxaborinine-8-carboxylic acid]
4 to 8 mg/L: N. gonorrhoeae FA1090
8 to 16 mg/L: P. aeruginosa ATCC 35151
16 to 32 mg/L: N. gonorrhoeae WHO G | N. gonorrhoeae WHO K | N. gonorrhoeae MS11 | N. gonorrhoeae WHO L | N. gonorrhoeae WHO Z
32 to 64 mg/L: E. coli 901C
> 128 mg/L: all other assays above

CN1CCC[C@H]1C(=O)NC(C(=O)N[C@H]1Cc2cccc(C(=O)O)c2OB1O)c1ccc(P(=O)(O)O)cc1 (stereo partly shown) [Example 66]
16 to 32 mg/L: N. gonorrhoeae WHO K | N. gonorrhoeae MS11 | N. gonorrhoeae WHO L | N. gonorrhoeae WHO Z
8 to 16 mg/L: P. aeruginosa ATCC 35151
32 to 64 mg/L: E. coli 901C | E. coli D22
4 to 8 mg/L: N. gonorrhoeae WHO G | N. gonorrhoeae FA1090
> 128 mg/L: all other assays above

O=C(O)c1cccc2c1OB(O)[C@@H](NC(=O)C(NC(=O)C(F)(F)F)c1ccc(P(=O)(O)O)cc1)C2 (stereo partly drawn) [Example 172, (3R)-2-hydroxy-3-(2-(4-phosphonophenyl)-2-(2,2,2-trifluoroacetamido)acetamido)-3,4-dihydro-2H-benzo[e][1,2]oxaborinine-8-carboxylic acid]
32 to 64 mg/L: P. aeruginosa ATCC 35151 | E. coli 901C
4 to 8 mg/L: N. gonorrhoeae FA1090
16 to 32 mg/L: N. gonorrhoeae WHO G | N. gonorrhoeae WHO K | N. gonorrhoeae MS11 | N. gonorrhoeae WHO L | N. gonorrhoeae WHO Z
> 128 mg/L: all other assays above

O=C(O)c1cccc2c1OB(O)[C@@H](NC(=O)[C@H](NC(=O)[C@@H]1CCCN1)c1ccc(P(=O)(O)O)cc1)C2 [Example 173, (R)-2-hydroxy-3-((R)-2-(4-phosphonophenyl)-2-((S)-pyrrolidine-2-carboxamido)acetamido)-3,4-dihydro-2H-benzo[e][1,2]oxaborinine-8-carboxylic acid]
4 to 8 mg/L: N. gonorrhoeae WHO G | N. gonorrhoeae FA1090
> 128 mg/L: E. coli AG100 | P. aeruginosa ATCC 27853
8 to 16 mg/L: P. aeruginosa ATCC 35151
16 to 32 mg/L: N. gonorrhoeae WHO K | N. gonorrhoeae MS11 | N. gonorrhoeae WHO L | N. gonorrhoeae WHO Z
32 to 64 mg/L: all other assays above
